In ChEMBL document CHEMBL5625274, “Improved synthesis, molecular modeling and anti-inflammatory activity of new fluorinated dihydrofurano-naphthoquinone compounds” (Bioorg Med Chem Lett, 2024):
Several values for one entry are separate records, joined by “and”; a condition that tells them apart may be missing. Identical values can stand only once.

Assays:
[1] = in vitro; conditions: mouse, RAW264.7 cells; at 2 µg/mL
[2] = in vitro; conditions: mouse, RAW264.7 cells; at 32 µg/mL
[3] = tested on: RAW264.7; assay: cells; conditions: Mus musculus
[4] = in vitro; conditions: mouse, RAW264.7 cells; at 8 µg/mL
[5] = in vitro; conditions: mouse, RAW264.7 cells
[6] = target: T1, Prostaglandin E synthase (Homo sapiens, UniProt O14684)
T1 sequence (O14684 whole entry): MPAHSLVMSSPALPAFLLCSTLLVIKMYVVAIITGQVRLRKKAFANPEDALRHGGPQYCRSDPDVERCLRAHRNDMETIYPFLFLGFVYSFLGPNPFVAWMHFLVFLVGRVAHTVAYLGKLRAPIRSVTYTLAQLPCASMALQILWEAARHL

[7] = in vitro; conditions: mouse, RAW264.7 cells; at 0.5 µg/mL
[8] = tested on: RAW264.7; assay: cells; conditions: Mus musculus; remark: listed apart in the source
[9] = tested on: RAW264.7; assay: cells; conditions: Mus musculus; remark: listed apart in the source

| Compound | IC50 [3] | Ki [6] [nM] | IC50 [8] [nM] | IC50 [9] [nM] | viability at 2 ug/mL [1] [%] | viability at 32 ug/mL [2] [%] | viability at 8 ug/mL [4] [%] | viability at 128 ug/mL [5] [%] | viability at 0.5 ug/mL [7] [%] |
| --- | --- | --- | --- | --- | --- | --- | --- | --- | --- |
| COc1ccc([C@@H]2C3=C(O[C@H]2C(=O)c2ccccc2)C(=O)c2ccccc2C3=O)c(F)c1 | – | – | – | – | 40 | 35 | 38 | 23 | 100 |
| COc1ccc([C@@H]2C3=C(O[C@H]2C(=O)c2ccccc2)C(=O)c2ccccc2C3=O)c(C(F)(F)F)c1 | > 268 µM and > 128 µg/mL | – | – | – | 100 | 100 | 100 | 40 | 100 |
| O=C1C2=C(C(=O)c3ccccc31)[C@@H](c1ccc(O)cc1F)[C@H](C(=O)c1ccccc1)O2 | – | – | – | – | 22 | 15 | 19 | 3 | 29 |
| O=C1C2=C(C(=O)c3ccccc31)[C@@H](c1ccccc1F)[C@H](C(=O)c1ccccc1)O2 | – | – | – | – | 32 | 15 | 20 | 0 | 81 |
| O=C1C2=C(C(=O)c3ccccc31)[C@@H](c1ccc(O)c(F)c1)[C@H](C(=O)c1ccccc1)O2 | – | – | – | – | 45 | 10 | 41 | 4 | 99 |
| COc1ccc([C@@H]2C3=C(O[C@H]2C(=O)c2ccccc2)C(=O)c2ccccc2C3=O)cc1F | 1.54 µM and 0.66 µg/mL | 241000 | – | – | 60 | 41 | 51 | 38 | 71 |
| O=C1C2=C(C(=O)c3ccccc31)[C@@H](c1ccc(OC(F)F)c(O)c1)[C@H](C(=O)c1ccccc1)O2 | – | – | – | – | 46 | 5 | 15 | 2 | 71 |
| O=C1C2=C(C(=O)c3ccccc31)[C@@H](c1ccc(OC(F)(F)F)cc1)[C@H](C(=O)c1ccccc1)O2 | > 276 µM and > 128 µg/mL | – | – | – | 100 | 70 | 100 | 34 | 100 |

Second part, led by results:

| IC50 [3] | Ki [6] [nM] | IC50 [8] [nM] | IC50 [9] [nM] | Compound | viability at 2 ug/mL [1] [%] | viability at 32 ug/mL [2] [%] | viability at 8 ug/mL [4] [%] | viability at 128 ug/mL [5] [%] | viability at 0.5 ug/mL [7] [%] |
| --- | --- | --- | --- | --- | --- | --- | --- | --- | --- |
| 3.92 µM and 1.75 µg/mL | 184000 | – | – | COc1cc(F)c([C@@H]2C3=C(O[C@H]2C(=O)c2ccccc2)C(=O)c2ccccc2C3=O)cc1F | 60 | 16 | 59 | 15 | 91 |
| 222 µM and 109 µg/mL | – | – | – | O=C1C2=C(C(=O)c3ccccc31)[C@@H](c1ccc(Oc3ccc(F)cc3)cc1)[C@H](C(=O)c1ccccc1)O2 | 99 | 99 | 99 | 29 | 100 |
| – | – | > 2900 | > 2900 | CCCCc1cc2c(o1)C(=O)c1ccccc1C2=O | – | – | – | – | – |
| 3.52 µM and 1.57 µg/mL | – | – | – | COc1c(F)cc([C@@H]2C3=C(O[C@H]2C(=O)c2ccccc2)C(=O)c2ccccc2C3=O)cc1F | 67 | 51 | 64 | 22 | 85 |
| 15.8 µM and 6.28 µg/mL | – | – | – | O=C1C2=C(C(=O)c3ccccc31)[C@@H](c1ccc(F)cc1)[C@H](C(=O)c1ccccc1)O2 | 100 | 33 | 69 | 2 | 100 |
| – | – | < 2900 | < 2900 | Cc1cc2c(o1)C(=O)c1ccccc1C2=O | – | – | – | – | – |
| – | – | > 2900 | > 2900 | CCc1cc2c(o1)C(=O)c1ccccc1C2=O | – | – | – | – | – |
